In patent US8895587B2, “Insecticidal compounds based on arylthioacetamide derivatives” (Syngenta Participations AG, priority 2011, dated 2014):

How the values were obtained:
Type in all cases: in vivo
Diabrotica balteata [1] = experiment: Diabrotica balteata (corn root worm) larval test on artificial diet; conditions: 120 h, read-out: Control/% Diabrotica balteata Corn rootworm; for pest or weed control at 3 ppm: application rate 3 ppm; for pest or weed control at 12 ppm: application rate 12 ppm; for pest or weed control at 50 ppm: application rate 50 ppm; for pest or weed control at 0.8 ppm: application rate 0.8 ppm
Plutella xylostella [2] = experiment: Plutella xylostella (diamond back moth) larval test on artificial diet; conditions: 144 h; for pest or weed control at 0.8 ppm: application rate 0.8 ppm; for pest or weed control at 3 ppm: application rate 3 ppm; for pest or weed control at 0.2 ppm: application rate 0.2 ppm
Heliothis virescens [3] = experiment: Heliothis virescens (tobacco budworm) egg/larval test on artificial diet; conditions: 96 h; for pest or weed control at 0.8 ppm: application rate 0.8 ppm; for pest or weed control at 3 ppm: application rate 3 ppm; for pest or weed control at 0.2 ppm: application rate 0.2 ppm
Heliothis virescens [4] = experiment: as above; conditions: 96 h, application rate 200 ppm (concentration in well 18 ppm), eggs on artificial diet, 4 days
Procedure: Eggs (0-24 h old) were placed in 24-well microtiter plate on artificial diet and treated with test solutions at an application rate of 200 ppm (concentration in well 18 ppm) by pipetting. After an incubation period of 4 days, samples were checked for egg mortality, larval mortality, and growth regulation.

Myzus persicae = Myzus persicae (green peach aphid), systemic test; conditions: 144 h, application rate 12.5 ppm, roots of pea seedlings in test solution, 6 days
Description: Myzus persicae (Green peach aphid), systemic test: Roots of pea seedlings, infested with an aphid population of mixed ages, are placed directly in the test solutions at an application rate of 12.5 ppm. 6 days after introduction, samples are checked for mortality and special effects on the plant. The following compounds gave at least 80% control of Myzus persicae: […]

Tetranychus urticae = Tetranychus urticae (two-spotted spider mite) leaf disc test; conditions: foliar, 192 h, application rate 200 ppm, bean leaf discs, 8 days
Description: Bean leaf discs on agar in 24-well microtiter plates were sprayed with test solutions at an application rate of 200 ppm. After drying, the leaf discs are infested with mite populations of mixed ages. 8 days later, discs are checked for egg mortality, larval mortality, and adult mortality.

Plutella xylostella [5] = experiment: Plutella xylostella (diamond back moth) larval test on artificial diet; conditions: 144 h, application rate 200 ppm (concentration in well 18 ppm), L2 larvae on artificial diet, 6 days
Procedure: (§1) 24-well microtiter plate (MTP) with artificial diet was treated with test solutions at an application rate of 200 ppm (concentration in well 18 ppm) by pipetting. After drying, the MTP's were infested with L2 larvae (7-12 per well). After an incubation period of 6 days, samples were checked for larval mortality and growth regulation.

Thrips tabaci = Thrips tabaci (onion thrips) leaf disc test; conditions: foliar, 168 h, application rate 200 ppm, sunflower leaf discs, 7 days
Procedure: Sunflower leaf discs were placed on agar in a 24-well microtiter plate and sprayed with test solutions at an application rate of 200 ppm. After drying, the leaf discs were infested with a thrips population of mixed ages. After an incubation period of 7 days, samples were checked for mortality.

Diabrotica balteata [6] = experiment: Diabrotica balteata (corn root worm) larval test on artificial diet; conditions: 120 h, application rate 200 ppm (concentration in well 18 ppm), L2 larvae on artificial diet, 5 days
Procedure: as §1, with “Diabrotica balteata (Corn Root Worm): A 24-well” for “24-well”, “(6-10” for “(7-12”, “5” for “6”

Spodoptera littoralis = Spodoptera littoralis (Egyptian cotton leafworm) leaf disc test; conditions: foliar, 72 h, application rate 200 ppm, cotton leaf discs, L1 larvae, mortality, feeding behavior, growth regulation 3 DAT
Description: Spodoptera littoralis (Egyptian Cotton Leafworm): Cotton leaf discs were placed on agar in a 24-well microtiter plate and sprayed with test solutions at an application rate of 200 ppm. After drying, the leaf discs were infested with 5 L1 larvae. The samples were checked for mortality, feeding behavior, and growth regulation 3 days after treatment (DAT).

| Compound | pest or weed control at 3 ppm (Diabrotica balteata [1]) [%] | pest or weed control at 12 ppm (Diabrotica balteata [1]) [%] | pest or weed control at 0.8 ppm (Plutella xylostella [2]) [%] | pest or weed control at 3 ppm (Plutella xylostella [2]) [%] | pest or weed control at 0.8 ppm (Heliothis virescens [3]) [%] | pest or weed control at 3 ppm (Heliothis virescens [3]) [%] | pest or weed control at 50 ppm (Diabrotica balteata [1]) [%] | pest or weed control at 0.8 ppm (Diabrotica balteata [1]) [%] | pest or weed control at 0.2 ppm (Plutella xylostella [2]) [%] | pest or weed control at 0.2 ppm (Heliothis virescens [3]) [%] | pest or weed control at 200 ppm (Heliothis virescens [4]) [%] | pest or weed control at 12.5 ppm (Myzus persicae) [%] | pest or weed control at 200 ppm (Tetranychus urticae) [%] | pest or weed control at 200 ppm (Plutella xylostella [5]) [%] | pest or weed control at 200 ppm (Thrips tabaci) [%] | pest or weed control at 200 ppm (Diabrotica balteata [6]) [%] | pest or weed control at 200 ppm (Spodoptera littoralis) [%] |
| --- | --- | --- | --- | --- | --- | --- | --- | --- | --- | --- | --- | --- | --- | --- | --- | --- | --- |
| Cc1cc(C2=NOC(c3cc(Cl)cc(Cl)c3)(C(F)(F)F)C2)ccc1[S+](C)[O-] (stereo not drawn) | 0 | 0 | 0 | 0 | 0 | 0 |  |  |  |  |  |  |  |  |  |  |  |
| CSc1ccc(C2=NOC(c3cc(Cl)cc(Cl)c3)(C(F)(F)F)C2)cc1C (stereo not drawn) [Compound 1-020] |  | 20 | 0 | 0 | 0 | 0 |  |  |  |  |  |  |  |  |  |  |  |
| Cc1cc(C2=NOC(c3cc(Cl)cc(Cl)c3)(C(F)(F)F)C2)ccc1S(C)(=O)=O (stereo not drawn) [Compound 1-021] |  | 0 | 0 | 0 | 0 | 0 | 90 |  |  |  |  |  |  |  |  |  |  |
| O=C(CSc1ccc(C2=NOC(c3cc(Cl)cc(Cl)c3)(C(F)(F)F)C2)cc1)NCC(F)(F)F (stereo not drawn) [Compound 1-028] | 20 | 100 | 0 | 50 | 0 | 90 |  | 0 | 0 | 0 |  |  |  |  |  |  |  |
| O=C(C[S+]([O-])c1ccc(C2=NOC(c3cc(Cl)cc(Cl)c3)(C(F)(F)F)C2)cc1)NCC(F)(F)F (stereo not drawn) [Compound 1-029] |  | 50 | 0 | 80 | 0 | 80 | 100 |  |  |  |  |  |  |  |  |  |  |
| O=C(CS(=O)(=O)c1ccc(C2=NOC(c3cc(Cl)cc(Cl)c3)(C(F)(F)F)C2)cc1)NCC(F)(F)F (stereo not drawn) [Compound 1-030] |  | 50 | 0 | 0 | 0 | 80 | 100 |  |  |  |  |  |  |  |  |  |  |
| Cc1cc(C2=NO[C@@](c3cc(Cl)cc(Cl)c3)(C(F)(F)F)C2)ccc1SCC(=O)NCC(F)(F)F [Compound C1, 2-{4-[(S)-5-(3,5-Dichloro-phenyl)-5-trifluoromethyl-4,5-dihydro-isoxazol-3-yl]-2-methyl-phenylsulfanyl}-N-(2,2,2-trifluoro-ethyl)-acetamide] | 100 | 100 | 100 | 100 | 80 | 100 |  | 80 | 80 | 80 | ≥ 80 | ≥ 80 | ≥ 80 | ≥ 80 | ≥ 80 |  |  |
| O=C(CSc1ccc(C2=NO[C@@](c3cc(Cl)cc(Cl)c3)(C(F)(F)F)C2)cc1F)NCC(F)(F)F [Compound C63, 2-[4-[(5S)-5-(3,5-dichlorophenyl)-5-(trifluoromethyl)-4H-isoxazol-3-yl]-2-fluoro-phenyl]sulfanyl-N-(2,2,2-trifluoroethyl)acetamide] |  |  |  |  |  |  |  |  |  |  | ≥ 80 | ≥ 80 | ≥ 80 | ≥ 80 | ≥ 80 | ≥ 80 | ≥ 80 |
| O=C(C[S+]([O-])c1ccc(C2=NO[C@@](c3cc(Cl)cc(Cl)c3)(C(F)(F)F)C2)cc1F)NCC(F)(F)F (stereo partly drawn) [Compound C64, 2-[4-[(5S)-5-(3,5-dichlorophenyl)-5-(trifluoromethyl)-4H-isoxazol-3-yl]-2-fluoro-phenyl]sulfinyl-N-(2,2,2-trifluoroethyl)acetamide] |  |  |  |  |  |  |  |  |  |  | ≥ 80 | ≥ 80 | ≥ 80 | ≥ 80 | ≥ 80 | ≥ 80 | ≥ 80 |
| O=C(CSc1ccc(C2=NO[C@@](c3cc(Cl)c(Cl)c(Cl)c3)(C(F)(F)F)C2)cc1Cl)NCC(F)(F)F [Compound D1, 2-[2-chloro-4-[(5S)-5-(3,4,5-trichlorophenyl)-5-(trifluoromethyl)-4H-isoxazol-3-yl]phenyl]sulfanyl-N-(2,2,2-trifluoroethyl)acetamide] |  |  |  |  |  |  |  |  |  |  | ≥ 80 | ≥ 80 | ≥ 80 | ≥ 80 | ≥ 80 | ≥ 80 | ≥ 80 |
| O=C(C[S+]([O-])c1ccc(C2=NO[C@@](c3cc(Cl)c(Cl)c(Cl)c3)(C(F)(F)F)C2)cc1Cl)NCC(F)(F)F (stereo partly drawn) [Compound D2, 2-[2-chloro-4-[(5S)-5-(3,4,5-trichlorophenyl)-5-(trifluoromethyl)-4H-isoxazol-3-yl]phenyl]sulfinyl-N-(2,2,2-trifluoroethyl)acetamide] |  |  |  |  |  |  |  |  |  |  | ≥ 80 | ≥ 80 | ≥ 80 | ≥ 80 | ≥ 80 | ≥ 80 | ≥ 80 |
| O=C(CS(=O)(=O)c1ccc(C2=NO[C@@](c3cc(Cl)c(Cl)c(Cl)c3)(C(F)(F)F)C2)cc1Cl)NCC(F)(F)F [Compound D3, 2-[2-chloro-4-[(5S)-5-(3,4,5-trichlorophenyl)-5-(trifluoromethyl)-4H-isoxazol-3-yl]phenyl]sulfonyl-N-(2,2,2-trifluoroethyl)acetamide] |  |  |  |  |  |  |  |  |  |  | ≥ 80 | ≥ 80 | ≥ 80 | ≥ 80 | ≥ 80 | ≥ 80 | ≥ 80 |
| O=C(CSc1ccc(C2=NO[C@@](c3cc(Cl)c(Cl)c(Cl)c3)(C(F)(F)F)C2)cc1Cl)NC1CC1 [Compound D4, 2-[2-chloro-4-[(5S)-5-(3,4,5-trichlorophenyl)-5-(trifluoromethyl)-4H-isoxazol-3-yl]phenyl]sulfanyl-N-cyclopropyl-acetamide] |  |  |  |  |  |  |  |  |  |  | ≥ 80 | ≥ 80 | ≥ 80 | ≥ 80 | ≥ 80 | ≥ 80 | ≥ 80 |
| O=C(CSc1ccc(C2=NOC(c3cc(Cl)cc(Cl)c3)(C(F)(F)F)C2)c2ccccc12)NCC(F)(F)F (stereo not drawn) [Compound G1, 2-[[4-[5-(3,5-dichlorophenyl)-5-(trifluoromethyl)-4H-isoxazol-3-yl]-1-naphthyl]sulfanyl]-N-(2,2,2-trifluoroethyl)acetamide] |  |  |  |  |  |  |  |  |  |  | ≥ 80 | ≥ 80 | ≥ 80 | ≥ 80 | ≥ 80 | ≥ 80 | ≥ 80 |
| O=C(CSc1ccc(C2=NO[C@@](c3cc(Cl)cc(Cl)c3)(C(F)(F)F)C2)c2ccccc12)NCC(F)(F)F [Compound G2, 2-[[4-[5-(S)-(3,5-dichlorophenyl)-5-(trifluoromethyl)-4H-isoxazol-3-yl]-1-naphthyl]sulfanyl]-N-(2,2,2-trifluoroethyl)acetamide] |  |  |  |  |  |  |  |  |  |  | ≥ 80 | ≥ 80 | ≥ 80 | ≥ 80 | ≥ 80 | ≥ 80 | ≥ 80 |
